Experiments:
Test in all cases: relative viability (nuclei count vs DMSO), 5 days (fraction); higher = more cells survive
LXF-289 = test system: LXF-289
Outline: (§1)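 Relative viability was taken as the ratio of nuclei in treated wells to nuclei in vehicle wells. Lung cancer cell lines in 1536-well plates received compounds by pin tool one day after seeding, either one drug alone or a fixed anchor-drug dose plus five library-drug doses (not always all listed) in √10 steps. Nuclei were counted on 4× images after 5 days of treatment, and values are medians of duplicate plates.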

NCI-H358 = test system: NCI-H358
Outline: as §1

NCI-H2085 = test system: NCI-H2085
Outline: as §1

LCLC-97TM1 = test system: LCLC-97TM1
Outline: as §1

NCI-H460 = test system: NCI-H460
Outline: as §1

LU99A = test system: LU99A
Outline: as §1

NCI-H2170 = test system: NCI-H2170
Outline: as §1

EPLC-272H = test system: EPLC-272H
Outline: as §1

NCI-H1975 = test system: NCI-H1975
Outline: as §1

SK-LU-1 = test system: SK-LU-1
Outline: as §1

COR-L 105 = test system: COR-L 105
Outline: as §1

HOP-62 = test system: HOP-62
Outline: as §1

NCI-H1755 = test system: NCI-H1755
Outline: as §1

A-427 = test system: A-427
Outline: as §1

HCC-78 = test system: HCC-78
Outline: as §1

SW 900 = test system: SW 900
Outline: as §1

UMC-11 = test system: UMC-11
Outline: as §1

NCI-H1915 = test system: NCI-H1915
Outline: as §1

NCI-H1793 = test system: NCI-H1793
Outline: as §1

NCI-H1944 = test system: NCI-H1944
Outline: as §1

LC-2-ad = test system: LC-2-ad
Outline: as §1

HCC-366 = test system: HCC-366
Outline: as §1

NCI-H1792 = test system: NCI-H1792
Outline: as §1

O=C(O)c1ccc(-c2c[nH]c3ncc(-c4ccccc4)cc23)cc1C1CCCC1 + CC(=O)c1c(C)c2cnc(Nc3ccc(N4CCNCC4)cn3)nc2n(C2CCCC2)c1=O [Palbociclib] (partner 0.5 µM)
relative viability (LXF-289; first compound 0.04 µM): 0.573 | relative viability (LXF-289; first compound 0.1265 µM): 0.584 | relative viability (LXF-289; first compound 0.4 µM): 0.57 | relative viability (LXF-289; first compound 1.265 µM): 0.521 | relative viability (NCI-H358; first compound 0.04 µM): 0.128 | relative viability (NCI-H358; first compound 0.1265 µM): 0.12 | relative viability (NCI-H358; first compound 0.4 µM): 0.124 | relative viability (NCI-H358; first compound 1.265 µM): 0.0876 | relative viability (NCI-H2085; first compound 0.04 µM): 0.448 | relative viability (NCI-H2085; first compound 0.1265 µM): 0.476 | relative viability (NCI-H2085; first compound 0.4 µM): 0.457 | relative viability (NCI-H2085; first compound 1.265 µM): 0.349 | relative viability (LCLC-97TM1; first compound 0.04 µM): 0.267 | relative viability (LCLC-97TM1; first compound 0.1265 µM): 0.222 | relative viability (LCLC-97TM1; first compound 0.4 µM): 0.187 | relative viability (LCLC-97TM1; first compound 1.265 µM): 0.217 | relative viability (NCI-H460; first compound 0.04 µM): 0.274 | relative viability (NCI-H460; first compound 0.1265 µM): 0.203 | relative viability (NCI-H460; first compound 0.4 µM): 0.23 | relative viability (NCI-H460; first compound 1.265 µM): 0.146 | relative viability (LU99A; first compound 0.04 µM): 0.43 | relative viability (LU99A; first compound 0.1265 µM): 0.439 | relative viability (LU99A; first compound 0.4 µM): 0.375 | relative viability (LU99A; first compound 1.265 µM): 0.344 | relative viability (NCI-H2170; first compound 0.04 µM): 0.387 | relative viability (NCI-H2170; first compound 0.1265 µM): 0.438 | relative viability (NCI-H2170; first compound 0.4 µM): 0.39 | relative viability (NCI-H2170; first compound 1.265 µM): 0.389 | relative viability (EPLC-272H; first compound 0.04 µM): 0.337 | relative viability (EPLC-272H; first compound 0.1265 µM): 0.332 | relative viability (EPLC-272H; first compound 0.4 µM): 0.321 | relative viability (EPLC-272H; first compound 1.265 µM): 0.294 | relative viability (NCI-H1975; first compound 0.04 µM): 0.588 | relative viability (NCI-H1975; first compound 0.1265 µM): 0.55 | relative viability (NCI-H1975; first compound 0.4 µM): 0.585 | relative viability (NCI-H1975; first compound 1.265 µM): 0.475 | relative viability (SK-LU-1; first compound 0.04 µM): 0.358 | relative viability (SK-LU-1; first compound 0.1265 µM): 0.381 | relative viability (SK-LU-1; first compound 0.4 µM): 0.366 | relative viability (SK-LU-1; first compound 1.265 µM): 0.359 | relative viability (COR-L 105; first compound 0.04 µM): 0.422 | relative viability (COR-L 105; first compound 0.1265 µM): 0.392 | relative viability (COR-L 105; first compound 0.4 µM): 0.349 | relative viability (COR-L 105; first compound 1.265 µM): 0.411 | relative viability (HOP-62; first compound 0.04 µM): 0.426 | relative viability (HOP-62; first compound 0.1265 µM): 0.414 | relative viability (HOP-62; first compound 0.4 µM): 0.443 | relative viability (HOP-62; first compound 1.265 µM): 0.434 | relative viability (NCI-H1755; first compound 0.04 µM): 0.434 | relative viability (NCI-H1755; first compound 0.1265 µM): 0.495 | relative viability (NCI-H1755; first compound 0.4 µM): 0.417 | relative viability (NCI-H1755; first compound 1.265 µM): 0.48 | relative viability (A-427; first compound 0.04 µM): 0.536 | relative viability (A-427; first compound 0.1265 µM): 0.526 | relative viability (A-427; first compound 0.4 µM): 0.485 | relative viability (A-427; first compound 1.265 µM): 0.48 | relative viability (HCC-78; first compound 0.04 µM): 0.494 | relative viability (HCC-78; first compound 0.1265 µM): 0.467 | relative viability (HCC-78; first compound 0.4 µM): 0.488 | relative viability (HCC-78; first compound 1.265 µM): 0.435 | relative viability (SW 900; first compound 0.04 µM): 0.523 | relative viability (SW 900; first compound 0.1265 µM): 0.521 | relative viability (SW 900; first compound 0.4 µM): 0.578 | relative viability (SW 900; first compound 1.265 µM): 0.277 | relative viability (UMC-11; first compound 0.04 µM): 0.286 | relative viability (UMC-11; first compound 0.1265 µM): 0.312 | relative viability (UMC-11; first compound 0.4 µM): 0.333 | relative viability (UMC-11; first compound 1.265 µM): 0.332 | relative viability (NCI-H1915; first compound 0.04 µM): 0.553 | relative viability (NCI-H1915; first compound 0.1265 µM): 0.527 | relative viability (NCI-H1915; first compound 0.4 µM): 0.452 | relative viability (NCI-H1915; first compound 1.265 µM): 0.428 | relative viability (NCI-H1793; first compound 0.04 µM): 0.248 | relative viability (NCI-H1793; first compound 0.1265 µM): 0.338 | relative viability (NCI-H1793; first compound 0.4 µM): 0.302 | relative viability (NCI-H1793; first compound 1.265 µM): 0.31 | relative viability (NCI-H1944; first compound 0.04 µM): 0.349 | relative viability (NCI-H1944; first compound 0.1265 µM): 0.376 | relative viability (NCI-H1944; first compound 0.4 µM): 0.315 | relative viability (NCI-H1944; first compound 1.265 µM): 0.314 | relative viability (LC-2-ad; first compound 0.04 µM): 0.425 | relative viability (LC-2-ad; first compound 0.1265 µM): 0.541 | relative viability (LC-2-ad; first compound 0.4 µM): 0.489 | relative viability (LC-2-ad; first compound 1.265 µM): 0.42 | relative viability (HCC-366; first compound 0.04 µM): 0.442 | relative viability (HCC-366; first compound 0.1265 µM): 0.43 | relative viability (HCC-366; first compound 0.4 µM): 0.416 | relative viability (HCC-366; first compound 1.265 µM): 0.346 | relative viability (NCI-H1792; first compound 0.1265 µM): 0.681 | relative viability (NCI-H1792; first compound 0.4 µM): 0.657 | relative viability (NCI-H1792; first compound 1.265 µM): 0.691
